Assay results published in the NIST ThermoML archive (doi:10.1016/j.tca.2011.12.010).
± gives the expanded uncertainty stated by the source.

How the values were obtained:
[1] = Molar enthalpy of transition or fusion; details: DSC
[2] = DTA

O=[N+]([O-])[O-].O=[N+]([O-])[O-].O=[N+]([O-])[O-].O=[N+]([O-])[O-].[K+].[K+].[Mg+2] [bis-potassium magnesium nitrate]
Molar enthalpy of transition or fusion ([1]; Crystal 1): 4.95 ± 0.151 kcal/mol
Molar enthalpy of transition or fusion ([1]; Crystal 2): 0.648 ± 0.0478 kcal/mol
Triple point temperature ([2]; Crystal 1): 468.85 ± 0.5 K
Triple point temperature ([2]; Crystal 2): 404.8 ± 0.5 K
